# Experimental data as given in paper PMC8815882, “Screening the pandemic response box identified benzimidazole carbamates, Olorofim and ravuconazole as promising drug candidates for the treatment of eumycetoma” (PLoS Neglected Tropical Diseases, 2022).
# Like-named read-outs stand apart in the source and are kept apart here.
# Legend:
# Assay type in all cases: cell-based, Madurella mycetomatis
# [1] = tested on: M. mycetomatis genome strain MM55; experiment: CLSI M38-A2 based in vitro susceptibility screening (XTT or resazurin), growth at fixed concentration; conditions: Madurella mycetomatis; for Percent fungal survival at 100 µM: replicate 2, M. mycetomatis MM55, read-out: Percentage survival at 100um, 100 uM A (second replicate column)
# M. mycetomatis MM55 = experiment: IC50 determination, 2-fold dilution series 16 to 0.03125 μM; conditions: for IC50 / IC90: Madurella mycetomatis
# [2] = tested on: ten different M. mycetomatis isolates; experiment: MIC / MIC50 determination (XTT) in ten M. mycetomatis isolates; conditions: Madurella mycetomatis
# [3] = MM55, mean of replicates, read-out: IC50 mean
# [4] = MM55, replicate 1, read-out: IC50 1 um
# [5] = MM55, replicate 2, read-out: IC50 2 um
# [6] = MM55, replicate 3, read-out: IC50 3 um
# [7] = 25 uM, mean of three, M. mycetomatis MM55, read-out: Percentage survival at 25um, 25 uM mean
# [8] = 25 uM, replicate A, M. mycetomatis MM55, read-out: Percentage survival at 25um, 25 um A
# [9] = 25 uM, replicate B, M. mycetomatis MM55, read-out: Percentage survival at 25um, 25 uM B
# [10] = 25 uM, replicate C, M. mycetomatis MM55, read-out: Percentage survival at 25um, 25 uM C
# [11] = mean of three, M. mycetomatis MM55, read-out: Percentage survival at 100um, 100 uM mean
# [12] = replicate 1, M. mycetomatis MM55, read-out: Percentage survival at 100um, 100 uM A (first replicate column)
# [13] = replicate 3, M. mycetomatis MM55, read-out: Percentage survival at 100um, 100 uM A (third replicate column)
# [14] = MM55, replicate 1, read-out: IC90 1 um
# [15] = MM55, replicate 2, read-out: IC90 2 um
# [16] = MM55, replicate 3, read-out: IC90 3 um
compound,measurement,setting,value
"Nc1nc(F)nc2c1ncn2[C@@H]1O[C@H](CO)[C@@H](O)[C@@H]1O [MMV637413, Fludarabine, reference compound]",activity at 25 µM,"[1]; 25 uM, replicate A, MM55, read-out: Percentage survival at 25um, 25 um A",3.41%
same,activity at 100 µM,"[1]; mean of replicates, MM55, read-out: Percentage survival at 100um, 100 uM mean",3.82%
same,activity at 100 µM,"[1]; replicate 1, MM55, read-out: Percentage survival at 100um, 100 uM A",1.86%
same,activity at 100 µM,"[1]; replicate 2, MM55, read-out: Percentage survival at 100um, 100 uM A",1.98%
same,activity at 100 µM,"[1]; replicate 3, MM55, read-out: Percentage survival at 100um, 100 uM A",7.64%
same,activity at 25 µM,"[1]; read-out: Percentage survival at 25um, 25 uM B",-4.01%
same,activity at 25 µM,"[1]; read-out: Percentage survival at 25um, 25 uM C",6.32%
same,activity at 25 µM,"[1]; read-out: Percentage survival at 25um, 25 uM mean",1.91%
same,Drug static or cidal,M. mycetomatis MM55,Static
same,IC50,M. mycetomatis MM55; [3],1.63 µM
same,IC90,"M. mycetomatis MM55; MM55, IC90, mean of replicates, read-out: IC90 mean",8.89 µM
same,IC90,"M. mycetomatis MM55; MM55, IC90, replicate 1, read-out: IC90 1 um",20.6 µM
same,IC90,"M. mycetomatis MM55; MM55, IC90, replicate 2, read-out: IC90 2 um",1.28 µM
same,IC90,"M. mycetomatis MM55; MM55, IC90, replicate 3, read-out: IC90 3 um",4.8 µM
same,IC50,M. mycetomatis MM55; [4],1.8 µM
same,IC50,M. mycetomatis MM55; [5],0.68 µM
same,IC50,M. mycetomatis MM55; [6],2.4 µM
same,IC50,"M. mycetomatis MM55; Table 2, M. mycetomatis MM55, read-out: IC50",1.63 µM
same,MIC50,"[2]; median MIC over ten M. mycetomatis isolates, no asterisk, read-out: MIC50",16 µM
same,MIC,"[2]; M. mycetomatis isolate CBS247.48, read-out: MIC CBS247.48",16 µM
same,MIC,"[2]; M. mycetomatis isolate MM14, read-out: MIC MM14",16 µM
same,MIC,"[2]; M. mycetomatis isolate MM45, read-out: MIC MM45",> 16 µM
same,MIC,"[2]; M. mycetomatis isolate MM55, read-out: MIC MM55",16 µM
same,MIC,"[2]; M. mycetomatis isolate P1, read-out: MIC P1",> 16 µM
same,MIC,"[2]; M. mycetomatis isolate ParijsAl1, read-out: MIC ParijsAl1",> 16 µM
same,MIC,"[2]; M. mycetomatis isolate Peru72012, read-out: MIC Peru72012",> 16 µM
same,MIC,"[2]; M. mycetomatis isolate So1, read-out: MIC So1",16 µM
same,MIC,"[2]; M. mycetomatis isolate i1, read-out: MIC i1",> 16 µM
same,MIC,"[2]; M. mycetomatis isolate i11, read-out: MIC i11",16 µM
same,MIC50,"[2]; over ten M. mycetomatis isolates, read-out: MIC50 mean",16 µM
O=[N+]([O-])c1ccc2c(CCc3c[nH]c4ccccc34)c[nH]c2c1 [MMV1593539],activity at 25 µM,[1]; [7],4.51%
same,activity at 25 µM,[1]; [8],2.73%
same,activity at 25 µM,[1]; [9],8.11%
same,activity at 25 µM,[1]; [10],2.7%
same,activity at 100 µM,[1]; [11],47.9%
same,activity at 100 µM,[1]; [12],0.0782%
same,Percent fungal survival at 100 µM,[1],136%
same,activity at 100 µM,[1]; [13],7.7%
same,Drug static or cidal,M. mycetomatis MM55; M. mycetomatis,Cidal
same,IC50,M. mycetomatis MM55; [3],12.4 µM
same,IC90,"M. mycetomatis MM55; MM55, mean of replicates, read-out: IC90 mean",21.7 µM
same,IC50,M. mycetomatis MM55; [4],3.2 µM
same,IC90,M. mycetomatis MM55; [14],18 µM
same,IC50,M. mycetomatis MM55; [5],15.9 µM
same,IC90,M. mycetomatis MM55; [15],23.4 µM
same,IC50,M. mycetomatis MM55; [6],18 µM
same,IC90,M. mycetomatis MM55; [16],23.7 µM
Nc1nnnn1CCOc1c2[nH]c3ccc(Cl)cc3c2cc2c1[nH]c1ccc(Cl)cc12 [MMV1633966],activity at 25 µM,[1]; [7],3.05%
same,activity at 25 µM,[1]; [8],1.67%
same,activity at 25 µM,[1]; [9],3.75%
same,activity at 25 µM,[1]; [10],3.74%
same,activity at 100 µM,[1]; [11],3.34%
same,activity at 100 µM,[1]; [12],3.63%
same,Percent fungal survival at 100 µM,[1],1.28%
same,activity at 100 µM,[1]; [13],5.11%
same,Drug static or cidal,M. mycetomatis MM55; M. mycetomatis,Cidal
same,IC50,M. mycetomatis MM55; [3],11 µM
same,IC50,M. mycetomatis MM55; [4],4.23 µM
same,IC90,M. mycetomatis MM55; [14],> 25 µM
same,IC50,M. mycetomatis MM55; [5],16.5 µM
same,IC90,M. mycetomatis MM55; [15],24 µM
same,IC50,M. mycetomatis MM55; [6],12.2 µM
same,IC90,M. mycetomatis MM55; [16],23.5 µM
CCOC(=O)Nc1cc(NC(C)CC(C)CN(CC)CC)c2nc(-c3ccccc3)c(-c3ccccc3)nc2n1 (centres unmarked) [MMV1633967],activity at 25 µM,"[1]; 25 uM, mean, read-out: Percentage survival at 25um, 25 uM mean",-1.71%
same,activity at 25 µM,"[1]; 25 uM, replicate A, read-out: Percentage survival at 25um, 25 um A",-4.99%
same,activity at 25 µM,"[1]; 25 uM, replicate B, read-out: Percentage survival at 25um, 25 uM B",0.0169%
same,activity at 25 µM,"[1]; 25 uM, replicate C, read-out: Percentage survival at 25um, 25 uM C",-0.146%
same,activity at 100 µM,"[1]; mean, read-out: Percentage survival at 100um, 100 uM mean",60.2%
same,activity at 100 µM,"[1]; replicate (first column), read-out: Percentage survival at 100um, 100 uM A",73.9%
same,activity at 100 µM,"[1]; replicate (second column), read-out: Percentage survival at 100um, 100 uM A",96.6%
same,activity at 100 µM,"[1]; replicate (third column), read-out: Percentage survival at 100um, 100 uM A",10.1%
same,Drug static or cidal,M. mycetomatis MM55,Static
same,IC50,"M. mycetomatis MM55; MM55, mean, read-out: IC50 mean",> 25 µM
same,IC90,"M. mycetomatis MM55; MM55, read-out: IC90 mean",> 25 µM
same,IC50,"M. mycetomatis MM55; MM55, replicate 1, read-out: IC50 1",> 25 µM
same,IC90,"M. mycetomatis MM55; MM55, replicate 1, read-out: IC90 1",> 25 µM
same,IC50,"M. mycetomatis MM55; MM55, replicate 2, read-out: IC50 2",> 25 µM
same,IC90,"M. mycetomatis MM55; MM55, replicate 2, read-out: IC90 2",> 25 µM
same,IC50,"M. mycetomatis MM55; MM55, replicate 3, read-out: IC50 3",> 25 µM
same,IC90,"M. mycetomatis MM55; MM55, replicate 3, read-out: IC90 3",> 25 µM
